According to ChEMBL document CHEMBL3217532, “New analyses of MIC90 data to aid antibacterial drug discovery” (2011):
Converted amounts (≈) assume the structure as drawn.

Test system: Pseudomonas aeruginosa
Test: Antimicrobial activity against Pseudomonas aeruginosa 1957-00
Type: functional

MIC90 [µg/mL]	Compound
0.125 (≈ 0.187 µM)	C[C@H]1[C@H](NC(=O)/C(=N\OC(C)(C)C(=O)O)c2csc(N)n2)C(=O)N1C(=O)NS(=O)(=O)n1nc(-c2cc(=O)c(O)c[nH]2)n(C)c1=O

Test system: Pseudomonas aeruginosa
Test: Antimicrobial activity against Pseudomonas aeruginosa 1768-00
Type: functional

MIC90 [µg/mL]	Compound
0.125 (≈ 0.187 µM)	C[C@H]1[C@H](NC(=O)/C(=N\OC(C)(C)C(=O)O)c2csc(N)n2)C(=O)N1C(=O)NS(=O)(=O)n1nc(-c2cc(=O)c(O)c[nH]2)n(C)c1=O

Test system: Pseudomonas aeruginosa
Test: Antimicrobial activity against Pseudomonas aeruginosa 1562-05
Type: functional

MIC90 [µg/mL]	Compound
0.25 (≈ 0.374 µM)	C[C@H]1[C@H](NC(=O)/C(=N\OC(C)(C)C(=O)O)c2csc(N)n2)C(=O)N1C(=O)NS(=O)(=O)n1nc(-c2cc(=O)c(O)c[nH]2)n(C)c1=O

Test system: Pseudomonas aeruginosa
Test: Antimicrobial activity against Pseudomonas aeruginosa 1753-00
Type: functional

MIC90 [µg/mL]	Compound
0.5 (≈ 0.748 µM)	C[C@H]1[C@H](NC(=O)/C(=N\OC(C)(C)C(=O)O)c2csc(N)n2)C(=O)N1C(=O)NS(=O)(=O)n1nc(-c2cc(=O)c(O)c[nH]2)n(C)c1=O

Test system: Pseudomonas aeruginosa
Test: Antimicrobial activity against Pseudomonas aeruginosa PA-1757
Type: functional

MIC90 [µg/mL]	Compound
8 (≈ 12 µM)	C[C@H]1[C@H](NC(=O)/C(=N\OC(C)(C)C(=O)O)c2csc(N)n2)C(=O)N1C(=O)NS(=O)(=O)n1nc(-c2cc(=O)c(O)c[nH]2)n(C)c1=O

Test system: Pseudomonas aeruginosa
Test: Antimicrobial activity against Pseudomonas aeruginosa 1568-05
Type: functional

MIC90 [µg/mL]	Compound
0.5 (≈ 0.748 µM)	C[C@H]1[C@H](NC(=O)/C(=N\OC(C)(C)C(=O)O)c2csc(N)n2)C(=O)N1C(=O)NS(=O)(=O)n1nc(-c2cc(=O)c(O)c[nH]2)n(C)c1=O

Test system: Pseudomonas aeruginosa
Test: Antimicrobial activity against Pseudomonas aeruginosa 1954-00
Type: functional

MIC90 [µg/mL]	Compound
0.06 (≈ 0.0897 µM)	C[C@H]1[C@H](NC(=O)/C(=N\OC(C)(C)C(=O)O)c2csc(N)n2)C(=O)N1C(=O)NS(=O)(=O)n1nc(-c2cc(=O)c(O)c[nH]2)n(C)c1=O

Test system: Pseudomonas aeruginosa
Test: Antimicrobial activity against Pseudomonas aeruginosa 1565-05
Type: functional

MIC90 [µg/mL]	Compound
0.25 (≈ 0.374 µM)	C[C@H]1[C@H](NC(=O)/C(=N\OC(C)(C)C(=O)O)c2csc(N)n2)C(=O)N1C(=O)NS(=O)(=O)n1nc(-c2cc(=O)c(O)c[nH]2)n(C)c1=O

Test system: Pseudomonas aeruginosa
Test: Antimicrobial activity against Pseudomonas aeruginosa 1612-09
Type: functional

MIC90 [µg/mL]	Compound
1 (≈ 1.5 µM)	C[C@H]1[C@H](NC(=O)/C(=N\OC(C)(C)C(=O)O)c2csc(N)n2)C(=O)N1C(=O)NS(=O)(=O)n1nc(-c2cc(=O)c(O)c[nH]2)n(C)c1=O

Test system: Pseudomonas aeruginosa
Test: Antimicrobial activity against Pseudomonas aeruginosa 1764-00
Type: functional

MIC90 [µg/mL]	Compound
0.25 (≈ 0.374 µM)	C[C@H]1[C@H](NC(=O)/C(=N\OC(C)(C)C(=O)O)c2csc(N)n2)C(=O)N1C(=O)NS(=O)(=O)n1nc(-c2cc(=O)c(O)c[nH]2)n(C)c1=O

Test system: Pseudomonas aeruginosa
Test: Antimicrobial activity against Pseudomonas aeruginosa 1512-08
Type: functional

MIC90 [µg/mL]	Compound
0.5 (≈ 0.748 µM)	C[C@H]1[C@H](NC(=O)/C(=N\OC(C)(C)C(=O)O)c2csc(N)n2)C(=O)N1C(=O)NS(=O)(=O)n1nc(-c2cc(=O)c(O)c[nH]2)n(C)c1=O

Test system: Pseudomonas aeruginosa
Test: Antimicrobial activity against Pseudomonas aeruginosa 1956-00
Type: functional

MIC90 [µg/mL]	Compound
0.125 (≈ 0.187 µM)	C[C@H]1[C@H](NC(=O)/C(=N\OC(C)(C)C(=O)O)c2csc(N)n2)C(=O)N1C(=O)NS(=O)(=O)n1nc(-c2cc(=O)c(O)c[nH]2)n(C)c1=O

Test system: Pseudomonas aeruginosa
Test: Antimicrobial activity against Pseudomonas aeruginosa 1613-09
Type: functional

MIC90 [µg/mL]	Compound
0.125 (≈ 0.187 µM)	C[C@H]1[C@H](NC(=O)/C(=N\OC(C)(C)C(=O)O)c2csc(N)n2)C(=O)N1C(=O)NS(=O)(=O)n1nc(-c2cc(=O)c(O)c[nH]2)n(C)c1=O

Test system: Pseudomonas aeruginosa
Test: Antimicrobial activity against Pseudomonas aeruginosa 1566-05
Type: functional

MIC90 [µg/mL]	Compound
0.25 (≈ 0.374 µM)	C[C@H]1[C@H](NC(=O)/C(=N\OC(C)(C)C(=O)O)c2csc(N)n2)C(=O)N1C(=O)NS(=O)(=O)n1nc(-c2cc(=O)c(O)c[nH]2)n(C)c1=O

Test system: Pseudomonas aeruginosa
Test: Antimicrobial activity against Pseudomonas aeruginosa 1523-08
Type: functional

MIC90 [µg/mL]	Compound
0.5 (≈ 0.748 µM)	C[C@H]1[C@H](NC(=O)/C(=N\OC(C)(C)C(=O)O)c2csc(N)n2)C(=O)N1C(=O)NS(=O)(=O)n1nc(-c2cc(=O)c(O)c[nH]2)n(C)c1=O

Test system: Pseudomonas aeruginosa
Test: Antimicrobial activity against Pseudomonas aeruginosa 1563-00
Type: functional

MIC90 [µg/mL]	Compound
0.25 (≈ 0.374 µM)	C[C@H]1[C@H](NC(=O)/C(=N\OC(C)(C)C(=O)O)c2csc(N)n2)C(=O)N1C(=O)NS(=O)(=O)n1nc(-c2cc(=O)c(O)c[nH]2)n(C)c1=O

Test system: Pseudomonas aeruginosa
Test: Antimicrobial activity against Pseudomonas aeruginosa 1510-08
Type: functional

MIC90 [µg/mL]	Compound
8 (≈ 12 µM)	C[C@H]1[C@H](NC(=O)/C(=N\OC(C)(C)C(=O)O)c2csc(N)n2)C(=O)N1C(=O)NS(=O)(=O)n1nc(-c2cc(=O)c(O)c[nH]2)n(C)c1=O

Test system: Pseudomonas aeruginosa
Test: Antimicrobial activity against Pseudomonas aeruginosa 1570-05
Type: functional

MIC90 [µg/mL]	Compound
0.125 (≈ 0.187 µM)	C[C@H]1[C@H](NC(=O)/C(=N\OC(C)(C)C(=O)O)c2csc(N)n2)C(=O)N1C(=O)NS(=O)(=O)n1nc(-c2cc(=O)c(O)c[nH]2)n(C)c1=O

Test system: Pseudomonas aeruginosa
Test: Antimicrobial activity against Pseudomonas aeruginosa 1615-09
Type: functional

MIC90 [µg/mL]	Compound
0.25 (≈ 0.374 µM)	C[C@H]1[C@H](NC(=O)/C(=N\OC(C)(C)C(=O)O)c2csc(N)n2)C(=O)N1C(=O)NS(=O)(=O)n1nc(-c2cc(=O)c(O)c[nH]2)n(C)c1=O

Test system: Pseudomonas aeruginosa
Test: Antimicrobial activity against Pseudomonas aeruginosa 1766-00
Type: functional

MIC90 [µg/mL]	Compound
0.5 (≈ 0.748 µM)	C[C@H]1[C@H](NC(=O)/C(=N\OC(C)(C)C(=O)O)c2csc(N)n2)C(=O)N1C(=O)NS(=O)(=O)n1nc(-c2cc(=O)c(O)c[nH]2)n(C)c1=O

Test system: Pseudomonas aeruginosa
Test: Antimicrobial activity against Pseudomonas aeruginosa 1514-08
Type: functional

MIC90 [µg/mL]	Compound
1 (≈ 1.5 µM)	C[C@H]1[C@H](NC(=O)/C(=N\OC(C)(C)C(=O)O)c2csc(N)n2)C(=O)N1C(=O)NS(=O)(=O)n1nc(-c2cc(=O)c(O)c[nH]2)n(C)c1=O

Test system: Pseudomonas aeruginosa
Test: Antimicrobial activity against Pseudomonas aeruginosa PA-4995
Type: functional

MIC90 [µg/mL]	Compound
0.125 (≈ 0.187 µM)	C[C@H]1[C@H](NC(=O)/C(=N\OC(C)(C)C(=O)O)c2csc(N)n2)C(=O)N1C(=O)NS(=O)(=O)n1nc(-c2cc(=O)c(O)c[nH]2)n(C)c1=O

Test system: Pseudomonas aeruginosa
Test: Antimicrobial activity against Pseudomonas aeruginosa 1619-08
Type: functional

MIC90 [µg/mL]	Compound
0.03 (≈ 0.0449 µM)	C[C@H]1[C@H](NC(=O)/C(=N\OC(C)(C)C(=O)O)c2csc(N)n2)C(=O)N1C(=O)NS(=O)(=O)n1nc(-c2cc(=O)c(O)c[nH]2)n(C)c1=O

Test system: Pseudomonas aeruginosa
Test: Antimicrobial activity against Pseudomonas aeruginosa 1761-00
Type: functional

MIC90 [µg/mL]	Compound
1 (≈ 1.5 µM)	C[C@H]1[C@H](NC(=O)/C(=N\OC(C)(C)C(=O)O)c2csc(N)n2)C(=O)N1C(=O)NS(=O)(=O)n1nc(-c2cc(=O)c(O)c[nH]2)n(C)c1=O

Test system: Pseudomonas aeruginosa
Test: Antimicrobial activity against Pseudomonas aeruginosa 1561-05
Type: functional

MIC90 [µg/mL]	Compound
1 (≈ 1.5 µM)	C[C@H]1[C@H](NC(=O)/C(=N\OC(C)(C)C(=O)O)c2csc(N)n2)C(=O)N1C(=O)NS(=O)(=O)n1nc(-c2cc(=O)c(O)c[nH]2)n(C)c1=O

Test system: Pseudomonas aeruginosa
Test: Antimicrobial activity against Pseudomonas aeruginosa 1951-00
Type: functional

MIC90 [µg/mL]	Compound
0.5 (≈ 0.748 µM)	C[C@H]1[C@H](NC(=O)/C(=N\OC(C)(C)C(=O)O)c2csc(N)n2)C(=O)N1C(=O)NS(=O)(=O)n1nc(-c2cc(=O)c(O)c[nH]2)n(C)c1=O
